Results taken from the supplement of paper PMC10733146.

Tests used:
Assay in all cases: viability relative to DMSO control (fraction); higher = less drug effect (more viable cells)
Conditions in all cases: 48 h
[1] = test system: primary AML patient cells (S089)
How it was run: (§1)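 Primary mononuclear tumour cells (Ficoll-isolated from blood or bone marrow, or processed lymph node; fresh or cryopreserved) were plated at 4 × 10^4 cells per well in 384-well plates with pre-plated compounds at five concentrations, one well each. Medium was RPMI-1640 with penicillin/streptomycin, L-glutamine and human serum, at 37 °C and 5% CO2 for 48 h. Viability was read as CellTiter-Glo luminescence relative to the median of 16 inner DMSO wells.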

[2] = test system: primary AML patient cells (S037)
How it was run: as §1

[3] = test system: primary CLL patient cells (S043)
How it was run: as §1

[4] = test system: primary T-PLL patient cells (S008)
How it was run: as §1

[5] = test system: primary AML patient cells (S091)
How it was run: as §1

[6] = test system: primary AML patient cells (S071)
How it was run: as §1

[7] = test system: primary DLBCL patient cells (S082)
How it was run: as §1

[8] = test system: primary AML patient cells (S055)
How it was run: as §1

[9] = test system: primary MCL patient cells (S053)
How it was run: as §1

[10] = test system: primary AML patient cells (S081)
How it was run: as §1

[11] = test system: primary AML patient cells (S021)
How it was run: as §1

[12] = test system: primary AML patient cells (S009)
How it was run: as §1

[13] = test system: primary B-PLL patient cells (S016)
How it was run: as §1

[14] = test system: primary BL patient cells (S005)
How it was run: as §1

[15] = test system: primary AML patient cells (S002)
How it was run: as §1

[16] = test system: primary AML patient cells (S060)
How it was run: as §1

[17] = test system: primary AML patient cells (S025)
How it was run: as §1

[18] = test system: primary AML patient cells (S072)
How it was run: as §1

[19] = test system: primary AML patient cells (S017)
How it was run: as §1

[20] = test system: primary MCL patient cells (S068)
How it was run: as §1

CC[C@H](Nc1ncnc2[nH]cnc12)c1nc2cccc(F)c2c(=O)n1-c1ccccc1 [Idelalisib]
viability ([1]; 0.0032 µM): 0.965 | viability ([1]; 0.016 µM): 0.739 | viability ([1]; 0.08 µM): 0.924 | viability ([1]; 0.4 µM): 0.671 | viability ([1]; 2 µM): 0.58 | viability ([2]; 0.0032 µM): 0.976 | viability ([2]; 0.016 µM): 1.03 | viability ([2]; 0.08 µM): 1.03 | viability ([2]; 0.4 µM): 1.81 | viability ([2]; 2 µM): 0.983 | viability ([3]; 0.0032 µM): 0.909 | viability ([3]; 0.016 µM): 0.805 | viability ([3]; 0.08 µM): 0.719 | viability ([3]; 0.4 µM): 0.745 | viability ([3]; 2 µM): 0.691 | viability ([4]; 0.0032 µM): 1 | viability ([4]; 0.016 µM): 0.97 | viability ([4]; 0.08 µM): 1.03 | viability ([4]; 0.4 µM): 0.99 | viability ([4]; 2 µM): 0.992 | viability ([5]; 0.0032 µM): 0.929 | viability ([5]; 0.016 µM): 0.838 | viability ([5]; 0.08 µM): 0.773 | viability ([5]; 0.4 µM): 0.697 | viability ([5]; 2 µM): 0.558 | viability ([6]; 0.0032 µM): 0.959 | viability ([6]; 0.016 µM): 0.868 | viability ([6]; 0.08 µM): 0.812 | viability ([6]; 0.4 µM): 0.733 | viability ([6]; 2 µM): 0.662 | viability ([7]; 0.0032 µM): 1.05 | viability ([7]; 0.016 µM): 0.893 | viability ([7]; 0.08 µM): 0.812 | viability ([7]; 0.4 µM): 0.768 | viability ([7]; 2 µM): 0.668 | viability ([8]; 0.0032 µM): 1 | viability ([8]; 0.016 µM): 0.961 | viability ([8]; 0.08 µM): 0.909 | viability ([8]; 0.4 µM): 0.972 | viability ([8]; 2 µM): 0.875 | viability ([9]; 0.0032 µM): 1.02 | viability ([9]; 0.016 µM): 0.96 | viability ([9]; 0.08 µM): 0.946 | viability ([9]; 0.4 µM): 0.877 | viability ([9]; 2 µM): 0.815 | viability ([10]; 0.0032 µM): 1.07 | viability ([10]; 0.016 µM): 1.04 | viability ([10]; 0.08 µM): 1.06 | viability ([10]; 0.4 µM): 1.07 | viability ([10]; 2 µM): 1.03 | viability ([11]; 0.0032 µM): 1.03 | viability ([11]; 0.016 µM): 0.928 | viability ([11]; 0.08 µM): 0.843 | viability ([11]; 0.4 µM): 0.827 | viability ([11]; 2 µM): 0.741 | viability ([12]; 0.0032 µM): 0.985 | viability ([12]; 0.016 µM): 1.02 | viability ([12]; 0.08 µM): 1.04 | viability ([12]; 0.4 µM): 0.998 | viability ([12]; 2 µM): 0.905 | viability ([13]; 0.0032 µM): 1.08 | viability ([13]; 0.016 µM): 0.889 | viability ([13]; 0.08 µM): 0.905 | viability ([13]; 0.4 µM): 0.794 | viability ([13]; 2 µM): 0.751 | viability ([14]; 0.0032 µM): 1 | viability ([14]; 0.016 µM): 0.95 | viability ([14]; 0.08 µM): 0.982 | viability ([14]; 0.4 µM): 1.01 | viability ([14]; 2 µM): 0.86 | viability ([15]; 0.0032 µM): 0.969 | viability ([15]; 0.016 µM): 1.02 | viability ([15]; 0.08 µM): 0.957 | viability ([15]; 0.4 µM): 0.924 | viability ([15]; 2 µM): 0.785 | viability ([16]; 0.0032 µM): 1.04 | viability ([16]; 0.016 µM): 1.02 | viability ([16]; 0.08 µM): 1.03 | viability ([16]; 0.4 µM): 1.08 | viability ([16]; 2 µM): 1.03 | viability ([17]; 0.0032 µM): 0.92 | viability ([17]; 0.016 µM): 0.935 | viability ([17]; 0.08 µM): 0.959 | viability ([17]; 0.4 µM): 1.14 | viability ([17]; 2 µM): 0.924 | viability ([18]; 0.0032 µM): 0.995 | viability ([18]; 0.016 µM): 0.883 | viability ([18]; 0.08 µM): 0.922 | viability ([18]; 0.4 µM): 0.82 | viability ([18]; 2 µM): 0.803 | viability ([19]; 0.0032 µM): 1.09 | viability ([19]; 0.016 µM): 1.1 | viability ([19]; 0.08 µM): 1.16 | viability ([19]; 0.4 µM): 0.988 | viability ([19]; 2 µM): 0.808 | viability ([20]; 0.0032 µM): 0.888 | viability ([20]; 0.016 µM): 0.755 | viability ([20]; 0.08 µM): 0.663 | viability ([20]; 0.4 µM): 0.612 | viability ([20]; 2 µM): 0.558

N#Cc1ccnc(N2C(=O)CC[C@H]2C(=O)N(c2cncc(F)c2)[C@H](C(=O)NC2CC(F)(F)C2)c2ccccc2Cl)c1 [AG-120]
viability ([1]; 0.024 µM): 0.664 | viability ([1]; 0.12 µM): 0.916 | viability ([1]; 0.6 µM): 0.818 | viability ([1]; 3 µM): 0.903 | viability ([1]; 15 µM): 0.827 | viability ([2]; 0.024 µM): 1.04 | viability ([2]; 0.12 µM): 1.04 | viability ([2]; 0.6 µM): 0.952 | viability ([2]; 3 µM): 1.01 | viability ([2]; 15 µM): 0.888 | viability ([3]; 0.024 µM): 0.819 | viability ([3]; 0.12 µM): 0.925 | viability ([3]; 0.6 µM): 0.925 | viability ([3]; 3 µM): 0.91 | viability ([3]; 15 µM): 0.837 | viability ([4]; 0.024 µM): 1.04 | viability ([4]; 0.12 µM): 1.09 | viability ([4]; 0.6 µM): 1.03 | viability ([4]; 3 µM): 1.04 | viability ([4]; 15 µM): 1.02 | viability ([5]; 0.024 µM): 1.02 | viability ([5]; 0.12 µM): 0.975 | viability ([5]; 0.6 µM): 1.03 | viability ([5]; 3 µM): 1.56 | viability ([5]; 15 µM): 1.03 | viability ([6]; 0.024 µM): 1.03 | viability ([6]; 0.12 µM): 1.05 | viability ([6]; 0.6 µM): 0.922 | viability ([6]; 3 µM): 0.919 | viability ([6]; 15 µM): 0.751 | viability ([7]; 0.024 µM): 1.03 | viability ([7]; 0.12 µM): 1.06 | viability ([7]; 0.6 µM): 0.895 | viability ([7]; 3 µM): 1.05 | viability ([7]; 15 µM): 0.935 | viability ([8]; 0.024 µM): 1.11 | viability ([8]; 0.12 µM): 1.13 | viability ([8]; 0.6 µM): 1.01 | viability ([8]; 3 µM): 1.09 | viability ([8]; 15 µM): 0.964 | viability ([9]; 0.024 µM): 0.945 | viability ([9]; 0.12 µM): 0.911 | viability ([9]; 0.6 µM): 0.593 | viability ([9]; 3 µM): 0.887 | viability ([9]; 15 µM): 0.641 | viability ([10]; 0.024 µM): 0.994 | viability ([10]; 0.12 µM): 1.01 | viability ([10]; 0.6 µM): 0.925 | viability ([10]; 3 µM): 1.11 | viability ([10]; 15 µM): 0.968 | viability ([11]; 0.024 µM): 0.985 | viability ([11]; 0.12 µM): 0.875 | viability ([11]; 0.6 µM): 0.743 | viability ([11]; 3 µM): 0.761 | viability ([11]; 15 µM): 0.692 | viability ([12]; 0.024 µM): 0.974 | viability ([12]; 0.12 µM): 0.96 | viability ([12]; 0.6 µM): 1.04 | viability ([12]; 3 µM): 0.943 | viability ([12]; 15 µM): 0.915 | viability ([13]; 0.024 µM): 1.16 | viability ([13]; 0.12 µM): 1.18 | viability ([13]; 0.6 µM): 1 | viability ([13]; 3 µM): 1.12 | viability ([13]; 15 µM): 0.86 | viability ([14]; 0.024 µM): 0.99 | viability ([14]; 0.12 µM): 1.02 | viability ([14]; 0.6 µM): 1.43 | viability ([14]; 3 µM): 1.01 | viability ([14]; 15 µM): 1.31 | viability ([15]; 0.024 µM): 0.901 | viability ([15]; 0.12 µM): 0.897 | viability ([15]; 0.6 µM): 0.849 | viability ([15]; 3 µM): 0.951 | viability ([15]; 15 µM): 0.766 | viability ([16]; 0.024 µM): 1.05 | viability ([16]; 0.12 µM): 1.1 | viability ([16]; 0.6 µM): 0.937 | viability ([16]; 3 µM): 1.16 | viability ([16]; 15 µM): 0.938 | viability ([17]; 0.024 µM): 1.04 | viability ([17]; 0.12 µM): 1.06 | viability ([17]; 0.6 µM): 0.85 | viability ([17]; 3 µM): 0.934 | viability ([17]; 15 µM): 0.826 | viability ([18]; 0.024 µM): 0.983 | viability ([18]; 0.12 µM): 1.1 | viability ([18]; 0.6 µM): 0.87 | viability ([18]; 3 µM): 0.919 | viability ([18]; 15 µM): 0.799 | viability ([19]; 0.024 µM): 1.04 | viability ([19]; 0.12 µM): 0.988 | viability ([19]; 0.6 µM): 1.16 | viability ([19]; 3 µM): 1.02 | viability ([19]; 15 µM): 0.908 | viability ([20]; 0.024 µM): 0.995 | viability ([20]; 0.12 µM): 1.02 | viability ([20]; 0.6 µM): 0.898 | viability ([20]; 3 µM): 1.05 | viability ([20]; 15 µM): 1.18
